Read-outs that look alike come from different tables or passages of the source.
Columns and labels:
hOATP1B3 = biological target: T1, hOATP1B3 (Homo sapiens, UniProt Q9NPD5); assay: Inhibition of hOATP1B3-mediated 3H-BSP uptake, stably transfected 293 cells; assay type: cell-based; settings: substrate 0.02 μM 3H-BSP, median (95% CI)
T1 construct: expressed in transfected cells; host or cells: 293 cells (control: empty vector)
T1 sequence (Q9NPD5 1-702): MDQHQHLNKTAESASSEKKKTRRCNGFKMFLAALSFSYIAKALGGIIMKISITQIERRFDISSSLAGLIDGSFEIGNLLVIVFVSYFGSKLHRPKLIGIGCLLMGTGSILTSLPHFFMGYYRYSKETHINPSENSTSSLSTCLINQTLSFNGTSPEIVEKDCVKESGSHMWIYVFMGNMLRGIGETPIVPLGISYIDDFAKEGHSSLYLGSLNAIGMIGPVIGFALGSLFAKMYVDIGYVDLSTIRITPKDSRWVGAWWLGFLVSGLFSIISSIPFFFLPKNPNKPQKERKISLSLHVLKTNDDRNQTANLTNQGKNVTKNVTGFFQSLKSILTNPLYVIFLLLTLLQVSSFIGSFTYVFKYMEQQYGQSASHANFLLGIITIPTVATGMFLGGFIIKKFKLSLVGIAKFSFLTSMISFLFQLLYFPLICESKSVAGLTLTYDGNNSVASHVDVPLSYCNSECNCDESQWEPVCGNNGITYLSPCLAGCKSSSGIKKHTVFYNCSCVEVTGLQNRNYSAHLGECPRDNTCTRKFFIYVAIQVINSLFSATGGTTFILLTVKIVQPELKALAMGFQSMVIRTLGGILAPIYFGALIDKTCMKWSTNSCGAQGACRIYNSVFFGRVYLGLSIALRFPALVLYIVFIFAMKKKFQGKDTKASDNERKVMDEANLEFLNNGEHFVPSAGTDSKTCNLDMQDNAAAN
From the text: We characterized the inhibitory potential of iohexol on major drug transporters recommended by regulatory agencies, which were previously assessed in a clinical transporter phenotyping cocktail study. These transporters include hOAT1, hOAT3, hOCT1, hOCT2, hMATE1, hMATE2K, human organic anion transporter polypeptides (hOATP)1B1, hOATP1B3, and human multidrug resistance protein (hMDR)1. Additionally, we investigated whether iohexol is a substrate for any of the renal transporters among these, including hOAT1/3, hOCT1/2, and hMATE1/2K. Cell‐based uptake assays were used to assess the activities of hOAT1/3, hOCT1/2, hMATE1/2K, and hOATP1B1/1B3. Inside‐out membrane vesicle uptake assays were used to evaluate the activity of hMDR1.
To determine the maximal inhibitory potential of iohexol, intracellular accumulation of a standard substrate was measured with and without the clinically relevant highest concentrations of iohexol. Control inhibitors were tested in each experiment.
In all subsequent in vitro studies, control experiments were conducted to validate the results. […] Each condition, including cells or vesicles with the transporter and their respective controls, was analyzed in at least three replicates. […]
Uptake assays were carried out with stably transfected 293 cells expressing hOATP1B1 or hOATP1B3, as well as cells containing an empty vector, using the method described by Hsin CH, et al..^1 For the inhibition assays, cells were incubated with the radiolabeled standard substrates specific to each transporter: 0.01 μM ^3H-estrone sulfate for hOATP1B1, and 0.02 μM ^3H-bromosulphophthalein (BSP) for hOATP1B3. […] The accumulation of radio-labelled probe substrates (^3H) in the cell lysate is determined using a Tri-Carb 2810 liquid scintillation counter (PerkinElmer, Waltham, MA, USA) as described previously.^1 Cellular protein amount was determined in parallel from 6 paired wells per cell line and experimental day, using the Bradford method.^2 The 1X lysis buffer (5X lysis buffer from Promega, diluted 1+4 [v/v] in ddH2O) was used as the lysis buffer. […]

[1] = Clinical trial in healthy volunteers, noncompartmental analysis of plasma and urine; assay type: in vivo, human; settings: for CL (plasma clearance, dose/AUC) / Ae0‐t (cumulative urinary excretion of unchanged iohexol) / Rmax (maximum observed excretion rate) / Vd / half-life / dose excreted / AUC: fasting, geomean (geoSD); for CL (plasma clearance, dose/AUC) / Vd / half-life / AUC: n=12, plasma; for Vd / half-life / dose excreted / AUC: human, iv; for Vd: read-out: Vz; for half-life: read-out: t1/2,λz (converted); for dose excreted: read-out: Recovery (percentage of dose recovered in urine)
[2] = Reference: 3235 mg i.v. bolus, urine, n=10
[3] = Test: 259 mg i.v. bolus, urine, n=10

CC(=O)N(CC(O)CO)c1c(I)c(C(=O)NCC(O)CO)c(I)c(C(=O)NCC(O)CO)c1I (stereo not drawn) [iohexol]
Inhibitory effect (% reduction of specific activity) (hOATP1B3; 20 mM iohexol): no notable inhibitory effects | inhibition at 7 min, 2 mM (hOATP1B3; human, stably transfected 293 cells expressing hOATP1B3, probe 3H-bromosulphophthalein (BSP), 2 mM iohexol, read-out: Inhibitory effect (% reduction of specific activity)): -2.5% | inhibition at 7 min, 20 mM (hOATP1B3; human, stably transfected 293 cells expressing hOATP1B3, probe 3H-bromosulphophthalein (BSP), 20 mM iohexol, read-out: Inhibitory effect (% reduction of specific activity)): -21% | T/R ratio (90% CIs) of urinary recovery ([1]; 259 mg test vs 3235 mg reference, urine, n=10): 1.06 (0.960–1.17) | CL (plasma clearance, dose/AUC) ([1]; Reference: 3235 mg i.v. bolus): 5.43 (1.19) L/h | Ae0‐t (cumulative urinary excretion of unchanged iohexol) [1, 2]: 3364 (1.14) mg | Rmax (maximum observed excretion rate) [1, 2]: 951 (1.12) mg/h | CL (plasma clearance, dose/AUC) ([1]; Test: 259 mg i.v. bolus): 5.46 (1.15) L/h | Ae0‐t (cumulative urinary excretion of unchanged iohexol) [1, 3]: 273 (1.09) mg | Rmax (maximum observed excretion rate) [1, 3]: 73.7 (1.27) mg/h | Vd ([1]; Reference: 3235 mg i.v. bolus): 32.4 L | half-life ([1]; Reference: 3235 mg i.v. bolus): 4.14 h | dose excreted [1, 2]: 103% | Vd ([1]; Test: 259 mg i.v. bolus): 26.1 L | half-life ([1]; Test: 259 mg i.v. bolus): 3.32 h | dose excreted [1, 3]: 106% | AUC ([1]; 259 mg, Test: 259 mg i.v. bolus, read-out: AUC0‐t): 46.5 µg·h/mL | AUC ([1]; 259 mg, Test: 259 mg i.v. bolus, read-out: AUC0‐∞): 46.7 µg·h/mL | AUC ([1]; 3235 mg, Reference: 3235 mg i.v. bolus, read-out: AUC0‐t): 598 µg·h/mL | AUC ([1]; 3235 mg, Reference: 3235 mg i.v. bolus, read-out: AUC0‐∞): 600 µg·h/mL | CVintra of CL ([1]; intraindividual coefficient of variation, test vs reference): 5.29%

Source: PMC11788587, “Validating Low‐Dose Iohexol as a Marker for Glomerular Filtration Rate by In Vitro and In Vivo Studies” (Clinical and Translational Science, 2025)
